Values quoted from earlier work as cited in US20110076334A1, “METHODS AND COMPOSITIONS FOR TREATMENT OF RAYNAUD'S PHENOMENON” (priority 2009, published 2011).
Read-outs that look alike come from different tables or passages of the source.

Columns and labels:
[1] = ultra-short acting calcium channel blocker; marketed injectable emulsion
[2] = clevidipine
[3] = in vivo

Row | initial phase half-life [2] | terminal half-life [2] | half-life (second phase) [3] | initial phase half-life [3] | terminal half-life [3] | Molecule | onset of action [1] [min]
1 | approximately 1 minute | approximately 15 minutes | – | – | – | CCCC(=O)OCOC(=O)C1=C(C)NC(C)=C(C(=O)OC)[C@H]1c1cccc(Cl)c1Cl (stereo in doubt) [Clevidipine, butyroxymethyl methyl 4-(2′,3′-dichlorophenyl)-2,6-dimethyl-1,4-dihydropyridine-3,5-dicarboxylate] | 1 to 2
2 | – | – | about 44.8 minutes | approximately 2.7 minutes | approximately 14.4 hours | (±)-2-(benzyl-methyl amino) ethyl methyl 1,4-dihydro-2,6-dimethyl-4-(m-nitrophenyl)-3,5-pyridinedicarboxylate monohydrochloride [nicardipine] | –
